Measurements from patent EP4745138A1, “THIO-GLUTARIMIDO ISOINDOLINONE DERIVATIVE, BIFUNCTIONAL PROTEIN DEGRADER CONTAINING SAME, AND USES THEREOF” (Gluetacs Therapeutics (Shanghai) Co., Ltd., priority 2023, dated 2025).
Where two headings read alike, the source gives them in different places.

Key:
[1] = system: SR; experiment: Tumor cell proliferation inhibition (CellTiter-Meiluncell Luminescent Cell Viability Assay); conditions: Homo sapiens, 96 hours, Table I-1, designed based on the ALK inhibitors, read-out: Inhibitory activity (IC50, nM) SR
Method: The tumor cells used herein were cultured in a cell culture medium listed in table 3 at 37°C in an incubator with 5% CO2. Prior to experimentation, all cell lines used were correctly identified by STR profiling, and tested negative for mycoplasma contamination using a mycoplasma detection kit through routine screenings. Table 3. Tumor cells and cell culture medium used in the present disclosure
The IC50 values of the compounds of the present disclosure (including the compounds in Table 1, Table 2, and Examples) were determined using the CellTiter-Meiluncell Luminescent Cell Viability Assay Kit from Dalian Meilun Biotech Co., Ltd. The detailed procedure is as follows: Tumor cells were seeded in 96-well cell culture plates at the densities specified in Table 4. On the following day, the test compounds of the present disclosure were subjected to serial dilution. […] Subsequently, 0.5 µL of the test compound dilution was transferred into the 96-well plate containing the cells, with each well containing 100 µL of cell culture medium. […] Into the 96-well plate, the diluted test compounds and corresponding detection reagents were added, resulting in final test compound concentrations of 500 nM and 10 nM, respectively. The experimental procedure is described below using the diluted 2 µM test compound as an example.
0.5 µL of the aforementioned diluted compound of the present disclosure (including the compounds in Table 1, Table 2, and Examples) was added to the seeded cells in 100 µL of medium, yielding a final test compound concentration of 10 nM. After the cells were treated with the compounds of the present disclosure for a specified period, the cell viability assay reagent was added to the culture medium according to the kit's instructions to determine cell viability. […] All controls were treated using the same procedure as the compounds of the present disclosure. […] Seeding protocol and treatment time for tumor cells

[2] = biological target: T1, ALK (Homo sapiens, UniProt Q96SW2+Q9HC35+Q9UM73); experiment: Western blot, target protein degradation in H2228 Cell; type: cell-based; conditions: substrate protein remaining %, treated at 500 nM and 50 nM, 24 hours
T1 construct: endogenous in cells; host or cells: H2228
Method: (§1) Conventional Western blot assay was performed to evaluate the effects of the compounds of the present disclosure on the expression of target proteins in cells.
(§2) (1) Cell Seeding and Protein Harvesting: The selected cells were processed according to the cell seeding procedure and protein harvesting procedure in Table II-2. Table II-2 Cell Seeding and Protein Harvesting Procedures
(§3) (2) To the collected supernatant, 5X SDS sample loading buffer was added, followed by denaturation at 95°C for 5 minutes. The denatured samples were then separated by SDS-PAGE electrophoresis on a polyacrylamide gel. Proteins were transferred to a nitrocellulose membrane (0.45 µm NC membrane), blocked with blocking buffer at room temperature for 1 hour, and subjected to antibody incubation and development procedures according to the antibody manufacturer's instructions (Cell Signaling Technology).
(§4) Half-Maximal Degradation Concentration value (the drug concentration required for degrading proteins by 50%, abbreviated as DC50) reads method: comparing the grayscale values of Western blot bands from drug-treated samples with those from blank DMSO-treated controls, and identifying the drug concentration range at which the grayscale value is half that of the DMSO-treated control bands.
(§5) DC50 values can be calculated using ImageJ software to measure grayscale values of Western blot bands from drug-treated samples. The concentration-response curve is fitted to estimate the drug concentration corresponding to half the grayscale value.
(§6) Target protein remaining (%) refers to the percentage of target protein remaining in cells after treatment with protein degrader compounds.
(§7) Calculation method for target protein remaining (%): Use ImageJ software to measure grayscale values of Western blot bands from drug (protein degrader)-treated samples. The grayscale value of drug-treated bands is divided by that of internal control protein bands, and the resulting quotient is normalized to obtain the relative percentage of remaining target protein after protein degrader treatment. Target protein degradation rate(%) = 1−target protein remaining(%). [formula]

[3] = biological target: T2, human Cereblon WT GST-tagged protein (Homo sapiens, UniProt Q96SW2); experiment: CRBN-binding affinity, HTRF (CEREBLON BINDING kit); conditions: for inhibition at 0.5 µM: read-out: Inhibition Rate at 0.5 µM (%); for inhibition at 2 µM: read-out: Inhibition Rate at 2 µM (%); for IC50: CRBN binding, HTRF
T2 construct: purchased CISBIO 64BDCRBNPEH
In short: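 cpd (final 2 µM, 0.5 µM; diluent #9 1X) + GST-CRBN WT + thalidomide-Red/anti-GST Eu mix; HTRF readout. Blanks: diluent + PROTAC binding buffer + detection mix.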

[4] = system: WEE1; experiment: Western blot, substrate protein degradation in hPBMC Cell; type: cell-based, Human; conditions: substrate protein remaining %, treated at 50 nM and 500 nM, 24 hours
Method: as §1, §2, §3, §4, §5, §6, §7

[5] = system: MM.1S; experiment: Tumor cell proliferation inhibition (CellTiter-Meiluncell Luminescent Cell Viability Assay); type: cell-based; conditions: MM.1S, 96 hours; for inhibition at 0.5 µM / inhibition at 0.01 µM: Homo sapiens, MM1.S; for inhibition at 0.5 µM: 500 nM, read-out: Inhibition Rate at 500 nM (%); for inhibition at 0.01 µM: read-out: Inhibition Rate at 10 nM (%)
In short: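 Following overnight seeding, tumor cells received serial compound dilutions to final levels that included 10 nM and 500 nM. Viability was assessed by luminescence at the end of the specified exposure time. Cultures were kept at 37°C with 5% CO2.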

[6] = biological target: T3, IKZF3 (Homo sapiens, UniProt Q96SW2+Q9UKT9); experiment: Western blot, substrate protein degradation in hPBMC Cell; type: cell-based; conditions: substrate protein remaining %, treated at 50 nM and 500 nM, 24 hours
T3 construct: endogenous in cells; host or cells: hPBMC
Method: as §1, §2, §3, §4, §5, §6, §7

[7] = biological target: T4, CK1α (Homo sapiens, UniProt P48729+Q96SW2); experiment: as above; type: cell-based; conditions: substrate protein remaining %, treated at 50 nM and 500 nM, 24 hours
T4 construct: endogenous in cells; host or cells: hPBMC
Method: as §1, §2, §3, §4, §5, §6, §7

[8] = biological target: T5, IKZF1 (Homo sapiens, UniProt Q13422+Q96SW2); experiment: as above; type: cell-based; conditions: substrate protein remaining %, treated at 50 nM and 500 nM, 24 hours
T5 construct: endogenous in cells; host or cells: hPBMC
Method: as §1, §2, §3, §4, §5, §6, §7

[9] = biological target: T6, IKZF2 (Homo sapiens, UniProt Q96SW2+Q9UKS7); experiment: as above; type: cell-based; conditions: substrate protein remaining %, treated at 50 nM and 500 nM, 24 hours
T6 construct: endogenous in cells; host or cells: hPBMC
Method: as §1, §2, §3, §4, §5, §6, §7

[10] = biological target: T7, GSPT1 (Homo sapiens, UniProt P15170+Q96SW2); experiment: as above; type: cell-based; conditions: substrate protein remaining %, treated at 50 nM and 500 nM, 24 hours
T7 construct: endogenous in cells; host or cells: hPBMC
Method: as §1, §2, §3, §4, §5, §6, §7

[11] = system: Tau; experiment: Western blot, target protein degradation in H4 Cell; type: cell-based; conditions: substrate protein remaining %, treated at 500 nM and 50 nM, 24 hours
Method: as §1, §2, §3, §4, §5, §6
as §7, with “Target protein degradation rate(%) = 1−target protein remaining(%). [formula]” left out

[12] = system: AKT; experiment: Western blot, target protein degradation in hPBMC Cell; type: cell-based, Human; conditions: substrate protein remaining %, treated at 50 nM and 500 nM, 24 hours
Method: as §1, §2, §3, §4, §5, §6
as §7, with “Target protein degradation rate(%) = 1−target protein remaining(%). [formula]” left out

[13] = Table I-16, compounds of Formula (II)
[14] = 10 nM, Table I-16, compounds of Formula (II)

T2 sequence (Q96SW2 whole entry): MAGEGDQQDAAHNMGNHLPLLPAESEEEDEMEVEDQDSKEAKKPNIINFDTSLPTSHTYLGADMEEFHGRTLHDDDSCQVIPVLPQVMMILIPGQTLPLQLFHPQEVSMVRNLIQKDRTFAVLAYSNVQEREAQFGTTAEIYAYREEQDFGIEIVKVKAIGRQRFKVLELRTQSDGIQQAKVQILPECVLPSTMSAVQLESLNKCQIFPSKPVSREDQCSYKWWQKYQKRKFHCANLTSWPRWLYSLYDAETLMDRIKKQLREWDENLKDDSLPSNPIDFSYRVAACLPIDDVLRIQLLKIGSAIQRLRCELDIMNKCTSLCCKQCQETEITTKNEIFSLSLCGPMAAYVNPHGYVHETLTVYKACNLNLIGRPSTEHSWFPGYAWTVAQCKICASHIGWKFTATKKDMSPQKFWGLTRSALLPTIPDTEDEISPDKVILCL
T7 sequence (P15170 whole entry): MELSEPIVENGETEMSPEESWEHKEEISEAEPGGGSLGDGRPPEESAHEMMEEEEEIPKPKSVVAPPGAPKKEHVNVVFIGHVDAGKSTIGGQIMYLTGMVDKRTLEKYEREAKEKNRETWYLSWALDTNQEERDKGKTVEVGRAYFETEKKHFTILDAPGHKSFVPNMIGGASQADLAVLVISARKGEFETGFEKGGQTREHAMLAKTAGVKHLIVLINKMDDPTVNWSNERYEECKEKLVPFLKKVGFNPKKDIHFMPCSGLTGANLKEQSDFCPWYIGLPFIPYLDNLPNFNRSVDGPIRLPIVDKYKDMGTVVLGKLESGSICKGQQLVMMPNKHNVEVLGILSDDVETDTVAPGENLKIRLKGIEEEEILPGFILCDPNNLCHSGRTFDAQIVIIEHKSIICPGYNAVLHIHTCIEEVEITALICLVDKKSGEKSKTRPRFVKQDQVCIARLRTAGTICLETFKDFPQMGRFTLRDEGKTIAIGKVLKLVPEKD
T7 sequence (Q96SW2 whole entry): as the sequence (Q96SW2 whole entry) above
T7 sequence (Q16531 whole entry partner): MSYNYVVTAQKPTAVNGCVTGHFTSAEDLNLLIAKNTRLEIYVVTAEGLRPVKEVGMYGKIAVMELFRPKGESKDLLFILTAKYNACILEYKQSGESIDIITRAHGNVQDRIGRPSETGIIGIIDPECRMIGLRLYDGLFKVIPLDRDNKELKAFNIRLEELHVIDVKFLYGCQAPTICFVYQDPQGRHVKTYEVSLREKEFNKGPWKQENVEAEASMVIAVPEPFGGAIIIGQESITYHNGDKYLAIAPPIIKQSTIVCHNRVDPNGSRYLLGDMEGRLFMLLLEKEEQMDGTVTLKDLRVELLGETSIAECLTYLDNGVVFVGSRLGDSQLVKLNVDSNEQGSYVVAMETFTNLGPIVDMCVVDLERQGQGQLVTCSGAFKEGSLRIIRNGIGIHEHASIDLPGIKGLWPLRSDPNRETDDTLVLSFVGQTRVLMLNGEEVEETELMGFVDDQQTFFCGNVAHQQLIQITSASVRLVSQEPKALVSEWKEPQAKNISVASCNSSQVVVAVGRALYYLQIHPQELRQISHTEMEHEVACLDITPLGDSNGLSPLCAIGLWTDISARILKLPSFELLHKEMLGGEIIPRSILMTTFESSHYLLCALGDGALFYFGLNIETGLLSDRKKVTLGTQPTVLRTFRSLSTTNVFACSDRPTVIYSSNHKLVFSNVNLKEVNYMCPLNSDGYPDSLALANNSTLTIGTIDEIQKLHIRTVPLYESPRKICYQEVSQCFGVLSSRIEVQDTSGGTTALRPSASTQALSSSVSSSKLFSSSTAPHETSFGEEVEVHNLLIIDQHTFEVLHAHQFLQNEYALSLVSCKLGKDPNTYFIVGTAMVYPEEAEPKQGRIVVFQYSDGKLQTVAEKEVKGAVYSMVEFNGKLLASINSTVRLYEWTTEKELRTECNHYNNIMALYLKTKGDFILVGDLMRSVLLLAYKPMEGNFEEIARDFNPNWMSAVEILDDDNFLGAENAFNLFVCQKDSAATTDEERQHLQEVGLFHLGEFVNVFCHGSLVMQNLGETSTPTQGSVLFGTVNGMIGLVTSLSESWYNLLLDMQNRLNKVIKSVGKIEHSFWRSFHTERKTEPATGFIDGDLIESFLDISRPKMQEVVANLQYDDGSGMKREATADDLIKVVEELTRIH
T4 sequence (P48729 whole entry): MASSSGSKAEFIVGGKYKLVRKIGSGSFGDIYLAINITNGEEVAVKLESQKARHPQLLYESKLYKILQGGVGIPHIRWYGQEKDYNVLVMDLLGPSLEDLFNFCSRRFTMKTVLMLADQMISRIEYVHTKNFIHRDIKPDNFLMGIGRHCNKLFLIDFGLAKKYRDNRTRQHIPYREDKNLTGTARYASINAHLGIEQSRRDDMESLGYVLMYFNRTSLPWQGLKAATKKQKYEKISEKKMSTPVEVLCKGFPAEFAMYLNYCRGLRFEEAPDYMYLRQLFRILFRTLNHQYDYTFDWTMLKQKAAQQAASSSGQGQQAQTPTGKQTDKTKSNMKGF
T4 sequence (Q96SW2 whole entry): as the sequence (Q96SW2 whole entry) above
T4 sequence (Q16531 whole entry partner): as the sequence (Q16531 whole entry partner) above
T5 sequence (Q13422 whole entry): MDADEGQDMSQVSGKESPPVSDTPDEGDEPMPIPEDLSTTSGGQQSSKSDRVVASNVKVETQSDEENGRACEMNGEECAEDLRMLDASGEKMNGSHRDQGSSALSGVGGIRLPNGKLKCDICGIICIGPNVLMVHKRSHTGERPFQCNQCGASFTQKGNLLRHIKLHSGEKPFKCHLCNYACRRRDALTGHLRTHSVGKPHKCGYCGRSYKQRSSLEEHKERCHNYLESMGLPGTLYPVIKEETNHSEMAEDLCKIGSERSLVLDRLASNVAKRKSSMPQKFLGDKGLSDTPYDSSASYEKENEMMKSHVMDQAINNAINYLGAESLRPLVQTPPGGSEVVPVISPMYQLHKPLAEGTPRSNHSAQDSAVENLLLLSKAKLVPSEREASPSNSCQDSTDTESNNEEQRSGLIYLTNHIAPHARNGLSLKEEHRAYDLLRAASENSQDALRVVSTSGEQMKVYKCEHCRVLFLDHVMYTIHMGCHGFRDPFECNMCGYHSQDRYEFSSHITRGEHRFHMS
T5 sequence (Q96SW2 whole entry): as the sequence (Q96SW2 whole entry) above
T5 sequence (Q16531 whole entry partner): as the sequence (Q16531 whole entry partner) above
T3 sequence (Q9UKT9 whole entry): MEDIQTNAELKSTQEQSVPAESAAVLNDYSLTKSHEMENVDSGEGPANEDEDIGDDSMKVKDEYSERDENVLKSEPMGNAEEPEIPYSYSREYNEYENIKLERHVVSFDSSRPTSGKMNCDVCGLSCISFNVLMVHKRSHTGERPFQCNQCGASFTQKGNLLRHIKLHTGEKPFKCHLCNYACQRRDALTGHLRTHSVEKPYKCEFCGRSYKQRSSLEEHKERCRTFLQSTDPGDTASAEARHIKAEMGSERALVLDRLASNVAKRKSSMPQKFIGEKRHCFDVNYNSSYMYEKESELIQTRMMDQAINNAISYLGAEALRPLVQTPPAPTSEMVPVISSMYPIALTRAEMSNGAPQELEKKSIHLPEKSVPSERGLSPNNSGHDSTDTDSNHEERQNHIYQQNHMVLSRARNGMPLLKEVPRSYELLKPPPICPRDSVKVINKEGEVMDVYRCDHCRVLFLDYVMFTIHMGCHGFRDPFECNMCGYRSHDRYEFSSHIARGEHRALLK
T3 sequence (Q96SW2 whole entry): as the sequence (Q96SW2 whole entry) above
T3 sequence (Q16531 whole entry partner): as the sequence (Q16531 whole entry partner) above
T6 sequence (Q9UKS7 whole entry): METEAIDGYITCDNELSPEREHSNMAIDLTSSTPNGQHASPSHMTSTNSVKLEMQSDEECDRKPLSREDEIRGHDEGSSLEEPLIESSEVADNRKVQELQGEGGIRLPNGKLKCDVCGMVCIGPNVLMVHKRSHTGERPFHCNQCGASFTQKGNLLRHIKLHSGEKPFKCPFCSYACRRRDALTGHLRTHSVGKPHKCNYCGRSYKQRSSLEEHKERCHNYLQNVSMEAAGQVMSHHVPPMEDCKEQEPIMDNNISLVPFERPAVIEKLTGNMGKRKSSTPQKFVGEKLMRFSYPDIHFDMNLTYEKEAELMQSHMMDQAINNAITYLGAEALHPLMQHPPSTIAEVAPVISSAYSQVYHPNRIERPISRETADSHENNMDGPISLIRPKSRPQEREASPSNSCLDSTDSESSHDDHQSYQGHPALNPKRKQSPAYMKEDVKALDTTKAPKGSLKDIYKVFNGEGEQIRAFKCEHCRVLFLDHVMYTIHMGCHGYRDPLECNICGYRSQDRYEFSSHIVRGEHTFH
T6 sequence (Q96SW2 whole entry): as the sequence (Q96SW2 whole entry) above
T6 sequence (Q16531 whole entry partner): as the sequence (Q16531 whole entry partner) above

## CCc1cc2c(cc1N1CCC(N3CCN(Cc4ccc5c(c4)CN(C4CCC(=O)NC4=O)C5=S)CC3)CC1)C(C)(C)c1[nH]c3cc(C#N)ccc3c1C2=O (stereo not drawn) [GT-05097, 8-(4-(4-((2-(2,6-dioxopiperidin-3-yl)-1-thioxoisoindolin-5-yl)methyl)piperazin-1-yl)piperidin-1-yl)-9-ethyl-6,6-dimethyl-11-oxo-6,11-dihydro-5H-benzo[b]carbazole-3-carbonitrile]
[1]
  IC50: 20 to 30 nM
[2]
  Degradation of substrate protein ALK: A (0% ≤ substrate protein remaining % ≤ 80%)
[3]
  inhibition at 0.5 µM: 40 to 53%
  inhibition at 2 µM: 80 to 100%

## O=C1CCC(N2Cc3cc(CO)ccc3C2=S)C(=O)N1 (stereo not drawn) [GT-06977, 3-(5-(hydroxymethyl)-1-thioxoisoindolin-2-yl)piperidine-2,6-dione]
[3]
  IC50: < 500 nM
[4]
  Degradation of substrate protein WEE1: B (80%< substrate protein remaining %≤ 100%)
[5]; [13]
  inhibition at 0.5 µM: 35 to 40%
[5]; [14]
  Inhibition Rate at 10 nM (%): ln6
[6]
  Degradation of substrate protein IKZF3: A (0% ≤ substrate protein remaining % ≤ 80%)
[7]
  Degradation of substrate protein CK1α: B (80%< substrate protein remaining %≤ 100%)
[8]
  Degradation of substrate protein IKZF1: B (80%< substrate protein remaining %≤ 100%)
[9]
  Degradation of substrate protein IKZF2: B (80%< substrate protein remaining %≤ 100%)
[10]
  Degradation of substrate protein GSPT1: B (80%< substrate protein remaining %≤ 100%)

## O=C1CCC(N2Cc3c(CO)cccc3C2=S)C(=O)N1 (stereo not drawn) [GT-06981, 3-(4-(hydroxymethyl)-1-thioxoisoindolin-2-yl)piperidine-2,6-dione]
[3]
  IC50: < 500 nM
[4]
  Degradation of substrate protein WEE1: B (80%< substrate protein remaining %≤ 100%)
[5]; [14]
  inhibition at 0.01 µM: 20 to 30%
[5]; [13]
  inhibition at 0.5 µM: 35 to 40%
[6]
  Degradation of substrate protein IKZF3: A (0% ≤ substrate protein remaining % ≤ 80%)
[7]
  Degradation of substrate protein CK1α: B (80%< substrate protein remaining %≤ 100%)
[8]
  Degradation of substrate protein IKZF1: B (80%< substrate protein remaining %≤ 100%)
[9]
  Degradation of substrate protein IKZF2: B (80%< substrate protein remaining %≤ 100%)
[10]
  Degradation of substrate protein GSPT1: B (80%< substrate protein remaining %≤ 100%)

## CC(=O)N1CCCN(c2nc(NCCc3cccs3)nc(N3CCN(Cc4ccc5c(c4)CN(C4CCC(=O)NC4=O)C5=S)CC3)n2)CC1 (stereo not drawn) [GT-08867, 3-(5-((4-(4-(4-acetyl-1,4-diazepan-1-yl)-6-((2-(thiophen-2-yl)ethyl)amino)-1,3,5-triazin-2-yl)piperazin-1-yl)methyl)-1-thioxoisoindolin-2-yl)piperidine-2,6-dione]
[11]
  Degradation of substrate protein Tau: A (0% ≤ substrate protein remaining % ≤ 80%)
[3]
  inhibition at 0.5 µM: 53 to 60%
  inhibition at 2 µM: 80 to 100%

## Cn1ncc(Cl)c1-c1cc(C(=O)N[C@H](CNCc2ccc3c(c2)CN(C2CCC(=O)NC2=O)C3=S)Cc2ccc(F)c(F)c2)oc1Cl (stereo partly drawn) [GT-08895, 5-chloro-4-(4-chloro-1-methyl-1H-pyrazol-5-yl)-N-((2S)-1-(3,4-difluorophenyl)-3-(((2-(2,6-dioxopiperidin-3-yl)-1-thioxoisoindolin-5-yl)methyl)amino)propan-2-yl)furan-2-carboxamide]
[12]
  Degradation of substrate protein AKT: A (0% ≤ substrate protein remaining % ≤ 80%)
[3]
  inhibition at 0.5 µM: 30 to 40%
  inhibition at 2 µM: 60 to 80%
[5]; 10 nM, Table I-14, AKT inhibitors
  inhibition at 0.01 µM: 30 to 40%
[5]; Table I-14, AKT inhibitors
  inhibition at 0.5 µM: 50 to 60%

## Cn1ncc(Cl)c1-c1cc(C(=O)N[C@@H](Cc2ccc(F)c(F)c2)CN2CCN(Cc3ccc4c(c3)CN(C3CCC(=O)NC3=O)C4=S)CC2)oc1Cl (stereo partly drawn) [GT-08896, 5-chloro-4-(4-chloro-1-methyl-1H-pyrazol-5-yl)-N-((2S)-1-(3,4-difluorophenyl)-3-(4-((2-(2,6-dioxopiperidin-3-yl)-1-thioxoisoindolin-5-yl)methyl)piperazin-1-yl)propan-2-yl)furan-2-carboxamide]
[12]
  Degradation of substrate protein AKT: A (0% ≤ substrate protein remaining % ≤ 80%)
[3]
  inhibition at 0.5 µM: 53 to 60%
  inhibition at 2 µM: 80 to 100%

## Cn1ncc(Cl)c1-c1cc(C(=O)N[C@@H](Cc2cccc(F)c2)CN2CCN(Cc3ccc4c(c3)CN(C3CCC(=O)NC3=O)C4=S)CC2)sc1Cl (stereo partly drawn) [GT-08897, 5-chloro-4-(4-chloro-1-methyl-1H-pyrazol-5-yl)-N-((2S)-1-(4-((2-(2,6-dioxopiperidin-3-yl)-1-thioxoisoindolin-5-yl)methyl)piperazin-1-yl)-3-(3-fluorophenyl)propan-2-yl)thiophene-2-carboxamide]
[12]
  Degradation of substrate protein AKT: A (0% ≤ substrate protein remaining % ≤ 80%)
[3]
  inhibition at 0.5 µM: 60 to 80%
  inhibition at 2 µM: 60 to 80%

## O=C1CCC(N2Cc3cc(CN4CCN(c5ccc(-c6ccc7c8cnccc8n(C(F)F)c7c6)cn5)CC4)ccc3C2=S)C(=O)N1 (stereo not drawn) [GT-08979, 3-(5-((4-(5-(5-(difluoromethyl)-5H-pyrido[4,3-b]indol-7-yl)pyridin-2-yl)piperazin-1-yl)methyl)-1-thioxoisoindolin-2-yl)piperidine-2,6-dione]
[11]
  Degradation of substrate protein Tau: A (0% ≤ substrate protein remaining % ≤ 80%)
[3]
  inhibition at 0.5 µM: 53 to 60%
  inhibition at 2 µM: 60 to 80%

## O=C1CCC(N2Cc3cc(CN4CCN(c5ccn6c(n5)nc5ccccc56)CC4)ccc3C2=S)C(=O)N1 (stereo not drawn) [GT-08981, 3-(5-((4-(benzo[4,5]imidazo[1,2-a]pyrimidin-2-yl)piperazin-1-yl)methyl)-1-thioxoisoindolin-2-yl)piperidine-2,6-dione]
[11]
  Degradation of substrate protein Tau: A (0% ≤ substrate protein remaining % ≤ 80%)
[3]
  inhibition at 0.5 µM: 60 to 80%
  inhibition at 2 µM: 80 to 100%
